Data from EP1228058B1, “BENZOPYRANYL GUANIDINE DERIVATIVES, PROCESS FOR PREPARATION THEREOF, AND PHARMACEUTICAL COMPOSITIONS CONTAINING THEM” (Dongbu Hannong Chemical Co., Ltd., priority 1999, dated 2001).

Assays:
[1] = system: A7r5; experiment: Inhibition of intracellular ROS induced by H2O2 (H2DCFDA) in A7r5; assay type: cell-based; conditions: Rattus norvegicus
Experimental: Measurement of intracellular ROS (Reactive Oxygen Species) was determined using H2DCFDA (2',7'-dichlorodihydrofluorescein diacetate, Molecular Probes, Eugene, OR, USA). H2DCFDA is a non-polar compound that readily diffused into cells, where it is hydrolyzed by intracellular esterase to polar derivative H2DCF (2',7'-dichlorodihydrofluorescein) which can not cross the cell membrane, and thereby trapped within the cell. H2DCF is low-fluorescent, but converted to high-fluorescent DCF (2',7'-dichlorofluorescein) by intracellular ROS. Therefore, the intracellular ROS formation can be determined from the amount of converted DCF. HUVEC (Human umbilical Vascular Endothelial Cells) or A7r5 (Rat thoracic aorta smooth muscle cells) were used. HUVEC were cultured in Kaighn's F12K medium supplemented with 10% heat-inactivated FBS, 0.1 mg/ml heparin sodium, 0.03-0.05 mg/ml ECGS (Endothelial cell growth supplement) and 1% antibiotics, and A7r5 were cultured in DMEM supplemented with 10% heat inactivated FBS and 1% antibiotics. To measure the intracellular ROS, HUVEC or A7r5 were preincubated for 30 min in the presence of test compounds (10^-7-10^-5 M). Thereafter, cells were stimulated with H2O2 (10^-6 and 10^-5 M for 20 min), and then incubated in the dark for 2 hr at 37 °C in 50 mM phosphate buffer (pH 7.4) containing 5 uM H2DCFDA. The quantity of DCF fluorescence (485 nm excitation, 530 nm emission) was measured using Fluorescence plate reader (FL600, Biotek Instruments).

[2] = system: diabetic rats; experiment: Effects on MNCV (motor nerve conduction velocity) in diabetic rats; assay type: in vivo; parameters: MNCV (sec): unit not given here; conditions: 30 mg/Kg, orally once a day
Experimental: Diabetes was induced with i.p. (intra peritoneum) injection of streptozocin (65 mg/Kg) in rats, then test compounds dissolved in 2 ml of media (physiological saline: ethanol: tween 80 = 8:1:1), were orally administered once a day. Rats were anesthetized with halothane, then the sciatic nerve was exposed to measure MNCV. The nerve was stimulated at two points. The first stimulus electrode was inserted at proximal end, and second stimulating electrode was inserted at the sciatic notch. The coaxial needle electrode was inserted into interdigital muscle, then the muscle action potential induced by two point stimulation. The conduction velocity was calculated by dividing the distance between two stimulus points by the latency difference. Lipoic acid (100 mg/Kg) was used in comparison with the compound of formula 1 in recovery of impaired MNCV in diabetic rats. The recovery (%) of MNCV was calculated according to the following mathematical formula 4. [Mathematical formula 4] Recovery(%) =(MNCV of treated group - MNCV of diabetic rats)/(MNCV of normal control-MNCV of diabetic rats)x100 [formula]

[3] = system: Human LDL; experiment: Inhibition of copper-induced LDL oxidation (MDA, TBA method); assay type: biochemical; conditions: CuSO4 10 uM, 18 hr
Experimental: Human LDL (sigma) was dissolved in distilled water at a concentration of 1 mg/ml. LDL was dialyzed against three changes of phosphate-buffered solution before oxidation to remove EDTA (ethylenediamine tetraacetate) at 4 °C for 18 hr. EDTA-free LDL (100 ug LDL protein/ml) was incubated in EDTA-free phosphate-buffered solution at 37 °C for 18 hr in the presence of CuSO4 (10 uM) under pretreatment with the test compounds or tochopherol of which final concentrations were 10^-9, 10^-7, and 10^-5 M. Blank was incubated without CuSO^., and vehicle was used as a solvent group. Oxidation was stopped at 4 °C by addition of EDTA (200 uM).
Copper (Cu^+2) facilitates the oxidation of LDL to produce malondialdehyde (MDA), thus the lipid peroxidation was determined by MDA quantification same as the above example 5 (1). The MDA quantification was estimated by reacting samples with 2-thiobarbituric acid (TBA) and measuring the absorbance at 530 nm. 1,1,3,3-Tetramethoxy propane (Sigma) was used as a standard agent, and calculated the quantity of MDA as nmol of MDA equivalents per mg protein. The inhibitory effect of the test compounds against the lipid peroxidation was evaluated by calculating MDA reduction rate of the test compounds compared with that of the control group.

COC(OC)[C@@]1(C)Oc2ccc([N+](=O)[O-])cc2[C@H](NC(=NC#N)NCc2ccccc2)[C@H]1O [Example 24, (2S, 3R, 4S)-N''-cyano-N-(6-nitro-3,4-dihydro-3-hydroxy-2-methyl-2-dimethoxymethyl-2H-benzopyran-4-yl)-N'-benzylguanidine]
inhibition at 10 µM ([1]; A7r5, Conc. 10^-5 M, read-out: Inhibition (%) H2O2 (10^-6M)): 185%
inhibition at 1 µM ([1]; A7r5, Conc. 10^-6 M): 111%
inhibition at 0.1 µM ([1]; A7r5, Conc. 10^-7 M, read-out: Inhibition (%) H2O2 (10^-6M)): 72%

COC(OC)[C@@]1(C)Oc2ccc(N)cc2[C@@H](NC(=NC#N)NCc2ccccc2)[C@@H]1O [Example 40, (2S, 3S, 4R)-N''-cyano-N-(6 - amino-3,4-dihydro-3-hydroxy-2-methyl-2-dimethoxymethyl-2H-benzopyran-4-yl)-N'-benzylguanidine]
MNCV (sec) ([2]; streptozocin diabetic rats): 47.756
Recovery (%) ([2]; MNCV, diabetic rats): 63.0%
% Inhibition ([3]; 10^-5 M): 27.6%
% Inhibition ([3]; 10^-7 M, 0.1 µM): 24.3%
% Inhibition ([3]; 10^-9 M, 0.001 µM): 7.6%
